# Data: patent publication US6211244A, “Calcium receptor-active compounds” (priority 1995, dated 2001)
# Several values for one entry are separate records, joined by “and”; a condition that tells them apart may be missing. Identical values can stand only once. Counter-ions that a name gives are not always drawn. Like-named read-outs stand apart in the source and are kept apart here.
# Biological target: T1, human calcium receptor (Homo sapiens, UniProt P41180, R990G)
# T1 construct: expressed in transfected cells; host or cells: HEK 293
# T1 sequence (P41180 20-1078 R990G): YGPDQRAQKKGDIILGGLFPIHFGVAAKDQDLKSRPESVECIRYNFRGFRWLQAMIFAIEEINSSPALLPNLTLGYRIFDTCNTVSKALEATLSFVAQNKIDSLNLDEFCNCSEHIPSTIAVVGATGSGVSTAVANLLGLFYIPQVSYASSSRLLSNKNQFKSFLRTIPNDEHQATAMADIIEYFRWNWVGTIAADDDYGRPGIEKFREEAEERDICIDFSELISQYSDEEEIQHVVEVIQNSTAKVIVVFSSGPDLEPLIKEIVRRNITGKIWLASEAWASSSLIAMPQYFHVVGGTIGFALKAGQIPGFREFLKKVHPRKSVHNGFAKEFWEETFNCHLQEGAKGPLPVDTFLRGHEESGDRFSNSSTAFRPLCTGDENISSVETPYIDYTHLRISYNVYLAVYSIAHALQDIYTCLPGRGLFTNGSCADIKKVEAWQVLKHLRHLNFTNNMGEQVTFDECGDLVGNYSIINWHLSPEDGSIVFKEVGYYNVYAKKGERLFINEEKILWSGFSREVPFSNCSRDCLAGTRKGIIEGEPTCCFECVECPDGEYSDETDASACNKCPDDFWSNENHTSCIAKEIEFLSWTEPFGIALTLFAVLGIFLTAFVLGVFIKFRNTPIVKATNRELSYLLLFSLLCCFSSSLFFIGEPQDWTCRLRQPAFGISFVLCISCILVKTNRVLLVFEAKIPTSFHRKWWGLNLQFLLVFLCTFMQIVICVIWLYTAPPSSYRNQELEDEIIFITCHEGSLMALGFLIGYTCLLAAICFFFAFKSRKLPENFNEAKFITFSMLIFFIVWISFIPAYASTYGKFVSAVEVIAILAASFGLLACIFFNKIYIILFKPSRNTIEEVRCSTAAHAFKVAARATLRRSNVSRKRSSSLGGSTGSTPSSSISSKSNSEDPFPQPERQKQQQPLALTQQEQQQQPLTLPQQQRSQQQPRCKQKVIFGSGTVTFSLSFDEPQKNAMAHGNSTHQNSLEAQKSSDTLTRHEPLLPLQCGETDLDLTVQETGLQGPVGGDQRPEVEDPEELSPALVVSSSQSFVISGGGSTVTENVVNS
# Assay: increases in [Ca^2+ ]i in HEK-293 cells expressing the human calcium receptor (fura-2 loaded HEK 293/pHuPCaR4.0 cells), % activity
# Format: cell-based
SMILES,% activity,% activity (33 ng/mL),% activity (330 ng/mL),% activity (3300 ng/mL)
CC(NC1CCc2ccccc2C1)c1ccccc1 (mixture of isomers) [Compound 4B],45,8%,–,–
CC(C=Cc1ccccc1)NC(C)c1ccccc1 (mixture of isomers) [Compound 5D],–,18%,62%,–
CC(NC1CCc2ccccc21)c1cccc2ccccc12 (mixture of isomers) [Compound 9A],–,56%,82%,–
COc1cccc(C(C)NC(C)c2ccc(C(C)(C)C)cc2)c1 (mixture of isomers) [Compound 13G],–,82%,128%,111%
CC(NC(C)c1ccc(C(C)(C)C)cc1)c1ccccc1 (mixture of isomers) [Compound 13H],–,36%,48%,88%
CC(NC(C)c1ccc2ccccc2c1)c1ccc(C(C)(C)C)cc1 (mixture of isomers) [Compound 13I],–,3%,52%,85%
CC(C)Cc1ccc(C(C)CNC(C)c2cccc3ccccc23)cc1 (mixture of isomers) [Compound 14A],–,10%,78%,98%
CC(O)c1ccc(CNC(C)c2cccc3ccccc23)cc1 (mixture of isomers) [Compound 17B],–,61%,92%,–
CCC(NC(C)c1cccc2ccccc12)c1ccc(OC)cc1 (mixture of isomers) [Compound 17G],–,119%,128%,125%
Cc1cc(C(C)NC(C)c2cccc3ccccc23)ccc1OCc1ccccc1 (mixture of isomers) [Compound 25X],–,72%,94%,96%
"COc1ccc(C(NC(C)c2cccc3ccccc23)C2CC2)cc1 (single isomer, unassigned) [Compound 17I]",–,76%,97%,118%
"COc1cccc(C(C)NCCC(C)c2ccc(Cl)cc2)c1 (centres unmarked) [5B/5C, N-[3-methyl-3-(4-chlorophenyl)propyl]-1-(3-methoxyphenyl)ethylamine]",–,20%,65%,–
CC(NC(C)c1cc2ccccc2c2ccccc12)c1cccc2ccccc12 (centres unmarked) [10S/10T],–,65%,86%,–
CC(NCC1CCc2ccccc2C1)c1cccc2ccccc12 (centres unmarked) [10W/10X],–,61% and 53%,98% and 81%,–
COc1cccc([C@@H](C)NC(C)CCc2ccccc2Cl)c1 (some centres unmarked) [21C = 4U],–,76%,114%,134%
CC(NCCCc1ccccc1)c1ccccc1 (centres unmarked) [Compound 1D],–,–,53%,–
CC(NCCCC1CCCCC1)c1ccccc1 (centres unmarked) [Compound 1T],–,–,76%,–
CC(NCCCc1ccccc1)c1c[nH]c2ccccc12 (centres unmarked) [Compound 2Q],–,4%,56%,–
COc1ccccc1C(C)NCCC(c1ccccc1)c1ccccc1 (centres unmarked) [Compound 2S],–,29%,67%,–
CC(NCCC(c1ccccc1)c1ccccc1)c1ccccc1Cl (centres unmarked) [Compound 2X],15,–,66%,–
CC(NCCC(c1ccccc1)c1ccccc1)c1cccc(Cl)c1 (centres unmarked) [Compound 2Y],–,10%,59%,–
CC(NCCC(c1ccccc1)c1ccccc1)c1ccccc1F (centres unmarked) [Compound 3A],–,7%,41%,–
CC(NCCC(c1ccccc1)c1ccccc1)c1cccc(F)c1 (centres unmarked) [Compound 3B],15,–,52%,–
CC(NCCC(c1ccccc1)c1ccccc1)c1ccccc1C(F)(F)F (centres unmarked) [Compound 3D],45,4%,–,–
CC(NCCCc1ccccc1)c1ccccc1 (centres unmarked) [Compound 3H],–,–,84%,–
Cc1ccccc1C(C)NCCC(c1ccccc1)c1ccccc1 (centres unmarked) [Compound 3L],–,28%,81%,–
Cc1cccc(C(C)NCCC(c2ccccc2)c2ccccc2)c1 (centres unmarked) [Compound 3M],–,19%,64%,–
CC(NCCC(c1ccccc1)c1ccccc1)c1ccc(O)cc1 (centres unmarked) [Compound 3R],45,2%,–,–

SMILES,% activity,% activity (33 ng/mL),% activity (330 ng/mL),% activity (3300 ng/mL)
"CC(NCCC(c1ccccc1)c1ccccc1)c1cccc2ccccc12 (centres unmarked) [Compound 3U, N-(3,3-diphenylpropyl)-(1-naphthyl)ethylamine]",–,57%,89%,–
COc1cccc(C(C)NCc2cccc3ccccc23)c1 (centres unmarked) [Compound 3V],–,14%,56%,–
"CC(N[C@H](C)c1ccccc1)c1cccc2ccccc12 (some centres unmarked) [Compound 4G, N-[1-(1-naphthyl)ethyl)-1-phenylethylamine]",–,46%,83%,–
CC(NCc1cccc2ccccc12)c1ccccc1 (centres unmarked) [Compound 4I],–,9%,40%,–
CC(NCc1ccc2ccccc2c1)c1ccccc1 (centres unmarked) [Compound 4J],–,8%,47%,–
COc1cccc(C(C)NCCCc2ccccc2F)c1 (centres unmarked) [Compound 4M],–,34%,68%,–
COc1cccc([C@@H](C)NCCCc2ccc(F)cc2)c1 [Compound 4P],–,–,81% and 61%,–
COc1cccc(C(C)NCCCc2ccccc2C(F)(F)F)c1 (centres unmarked) [Compound 4V],–,59%,93%,–
CC(COc1ccccc1)NC(C)c1ccccc1 (centres unmarked) [Compound 5G],–,16%,58%,–
C[C@@H](NCC=C(c1ccccc1)c1ccccc1)c1ccccc1 [Compound 5L],–,16%,60%,–
CC(NCC=Cc1ccccc1[N+](=O)[O-])c1ccccc1 (centres unmarked) [Compound 5M],–,21%,73%,–
"CCOc1cccc([C@@H](C)NCCCc2ccccc2)c1 [Compound 6R, (R)-N-(3-phenylpropyl)-1-(3-ethoxyphenyl)ethylamine]",–,52%,94%,–
"CCOc1cccc([C@@H](C)NCCCc2ccccc2Cl)c1 [Compound 6T, (R)-N-[3-(2-chlorophenyl)propyl]-1-(3-ethoxyphenyl)ethylamine]",–,78%,129%,123%
COc1cccc([C@@H](C)NCCCc2cccc(Cl)c2)c1 [Compound 6X],–,52%,84%,–
C[C@@H](NCCCc1ccccc1Cl)c1cccc(OC(F)(F)F)c1 [Compound 7U],–,–,49%,–
CC(=O)c1cccc(C(C)NCCCc2ccccc2)c1 (centres unmarked) [Compound 7W],–,–,76%,–
COc1cccc(C(C)NCCCC2CCCCC2)c1 (centres unmarked) [Compound 7X],–,–,85%,–
COc1cc(OC)cc(C(C)NCCCc2ccccc2)c1 (centres unmarked) [Compound 8A],–,–,54%,–
"CSc1cccc(C(C)NCCCc2ccccc2)c1 (centres unmarked) [Compound 8J, N-(3-phenylpropyl)-1-(3-thiomethylphenyl)ethylamine hydrochloride]",–,77%,104%,–
CSc1cccc(C(C)NCCCc2ccccc2Cl)c1 (centres unmarked) [Compound 8K],–,81%,98%,–
COc1cccc(C(C)NCCCc2cc(OC)c(OC)c(OC)c2)c1 (centres unmarked) [Compound 8S],–,42%,73%,–
COc1cccc(C(C)NCC=Cc2ccccc2OC)c1 (centres unmarked) [Compound 8T],–,55%,85%,–
"COc1cccc([C@@H](C)NCCCc2ccccc2OC)c1 [Compound 8U, N-3-(2-methoxyphenyl)-1-propyl-(R)-3-methoxy-α-methylbenzylamine hydrochloride]",–,82%,129%,123%
COc1cccc([C@@H](C)NCCCc2ccc(C)cc2)c1 [Compound 8X],–,40%,75%,–
CC(N[C@H](C)c1cccc2ccccc12)c1ccc2ccccc2c1 (some centres unmarked) [Compound 8Z],–,97%,101%,–
"C[C@@H](N[C@H](C)c1cccc2ccccc12)c1ccc2ccccc2c1.Cl [Compound 9R, (R)-N-(1-(2-naphthyl)ethyl)-(R)-1-(1-naphthyl)ethylamine hydrochloride]",–,101%,108%,–
CC(NCc1ccc(-c2ccccc2)cc1)c1cccc2ccccc12 (centres unmarked) [Compound 10N],–,77%,97%,106%
